Assay results reported in US20110319626A1 (BRADFORD PHARMA LIMITED, priority 2009, published 2011).

Molecular target: T1, HMG-CoA reductase (Homo sapiens, UniProt P04035)
T1 construct: oxidation of NADPH by the catalytic subunit of HMGR in the presence of the substrate HMG-CoA; purchased Sigma-Aldrich CS1090 (kit); H8789 (HMG-CoA reductase)
T1 sequence (P04035 340-888 limits assumed): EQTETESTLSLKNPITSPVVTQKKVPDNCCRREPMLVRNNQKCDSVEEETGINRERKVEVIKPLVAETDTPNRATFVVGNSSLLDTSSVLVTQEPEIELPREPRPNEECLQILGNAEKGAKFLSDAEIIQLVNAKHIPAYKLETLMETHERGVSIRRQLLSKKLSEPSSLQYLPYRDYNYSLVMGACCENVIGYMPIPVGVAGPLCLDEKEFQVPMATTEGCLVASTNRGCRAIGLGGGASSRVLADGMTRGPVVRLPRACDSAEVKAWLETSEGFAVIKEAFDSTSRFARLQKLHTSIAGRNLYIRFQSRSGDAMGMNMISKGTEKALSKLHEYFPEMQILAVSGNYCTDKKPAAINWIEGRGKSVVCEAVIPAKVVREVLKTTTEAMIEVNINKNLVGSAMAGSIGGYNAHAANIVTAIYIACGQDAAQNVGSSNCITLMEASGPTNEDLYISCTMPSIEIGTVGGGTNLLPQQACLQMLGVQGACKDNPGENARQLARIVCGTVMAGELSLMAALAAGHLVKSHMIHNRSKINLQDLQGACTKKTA
Assay: HMG-CoA Reductase assay kit (spectrophotometric NADPH absorbance at 340 nm)
Assay type: biochemical
Conditions: NADPH and HMG-CoA both 200 μM, inhibitor concentrations varied from 0 nM to 50 nM, 37° C.
Procedure: All assays were carried out in a reaction buffer containing […] KxPO4 at pH 7.2, 1 mM EDTA, 500 mM KCl and 1 mg/ml BSA. The concentrations of NADPH and HMG-CoA were both 200 μM. […] Absorbance readings were then taken every 20 seconds for 600 seconds. […] After these were identified, assays were carried out varying their concentrations from 0 nM to 50 nM allowing IC50 values to be calculated.
This is illustrated in the following reaction scheme:
HMG-CoA+2NADPH+2H^+→mevalonate+2NADP^++CoA-SH
Add a buffer to all samples. • b. […] Add the reconstituted NADPH to all samples. • d. Add Substrate Solution (HMG-CoA) to all samples. • e. […] Mix the samples thoroughly.
3. The kinetics programme was started immediately.

SMILES | IC50
CC(C)c1c(C(=O)Nc2ccccc2)c(-c2ccccc2)c(-c2ccc(F)cc2)n1CC[C@@H]1C[C@@H](O)CC(=O)O1 | 3 nM
COC1C[C@H](OC(=O)c2cccnc2)C[C@@H](CCn2c(-c3ccc(F)cc3)c(-c3ccccc3)c(C(=O)Nc3ccccc3)c2C(C)C)O1 (some centres unmarked) | < 1 nM
CCCOC1C[C@H](O)C[C@@H](CCn2c(-c3ccc(F)cc3)c(-c3ccccc3)c(C(=O)Nc3ccccc3)c2C(C)C)O1 (some centres unmarked) | < 1 nM
CC(C)c1c(C(=O)Nc2ccccc2)c(-c2ccccc2)c(-c2ccc(F)cc2)n1CC[C@@H]1C[C@@H](O)CC(OC2CCCCC2)O1 (some centres unmarked) | < 1 nM
CC(C)OC1C[C@H](OCc2ccccc2)C[C@@H](CCn2c(-c3ccc(F)cc3)c(-c3ccccc3)c(C(=O)Nc3ccccc3)c2C(C)C)O1 (some centres unmarked) | 4 nM
CC(C)c1c(C(=O)Nc2ccccc2)c(-c2ccccc2)c(-c2ccc(F)cc2)n1CC[C@@H]1C[C@@H](OCc2ccccc2)CC(OC(C)(C)C)O1 (some centres unmarked) | 3 nM
C=CCOC1C[C@H](OCc2ccccc2)C[C@@H](CCn2c(-c3ccc(F)cc3)c(-c3ccccc3)c(C(=O)Nc3ccccc3)c2C(C)C)O1 (some centres unmarked) | 1 nM
COc1ccc(OC2C[C@H](O)C[C@@H](CCn3c(-c4ccc(F)cc4)c(-c4ccccc4)c(C(=O)Nc4ccccc4)c3C(C)C)O2)c(OC)c1 (some centres unmarked) | < 1 nM
